Test results from patent US20060210568A1, “Methods and compositions for cancer treatment” (priority 2003, published 2006).

Key:
[1] = system: ADRP expression in MCF-7 cells; assay: ADRP expression in MCF-7 cells (RT-PCR); format: cell-based, human; conditions: for increase of ADRP level over the endogenous level: treatment of cells, depends on length of treatment
Excerpt: Ciglitazone is known to bind and activate the nuclear receptor PPAR gamma, which has been shown in MCF-7 to stimulate expression of beta casein (Mueller et al., 1998).
It is known that estradiol plays a dual role in mammary epithelial cells as a stimulator of proliferation and also as a differentiation factor at different times of the developmental stages of mammary gland development (Kumar et al, 2000).
A specific siRNA against human ADRP mRNA (hADRP-siRNA) was designed using the sequence between +225 to +244 of human ADRP as a target. A control siRNA was designed using a portion of the green fluorescence protein gene. Twenty-one-oligonucleotide RNA for hADRP (rArUrU rGrCrA rGrUrU rGrCrC rArArU rArCrC rUTT and rArGrG rUrArU rUrGrG rCrArA rCrUrG rCrArA rUTT) with 3′dTdT overhangs, and for GFP (rGrGrC rUrArC rGrUrC rCrArG rGrArG rCrGrC rArCrC and rUrGrC rGrCrU rCrCrU rGrGrA rCrGrU rArGrC rCrUrU) were synthesized (Integrated DNA Technologies, Inc., Coralville, Iowa). Transfection of siRNA duplex was performed in MCF-7 cells using LipofectAMINE 2000 reagents as described by the manufacturer (Invitrogen, Carlsbad, Calif.). MCF-7 EV grown to 50% confluency in 6-well plates were transfected with 100 pmole of siRNA per well in serum free-DMEM/F12. After 5 h, the medium was replaced with DMEM/F12 containing 5% FBS. Control MCF-7 cells were treated with GFP siRNA. The cells were then treated with 50 μM (50 micromolars) ciglitazone. After 48 h of incubation, RNA samples were collected by Trizol method to measure human ADRP expression and beta casein expression by RT-PCR as described above.

EV MCF-7 cells = assay: proliferation assay, EV MCF-7 control cells; format: cell-based, human; conditions: estradiol 10^−9 M, insulin 10 microgramsg/ml, EGF 25 ng/ml in medium
Method: For proliferation assay, the cells were seeded at a density of 5×10^4 cells in phenol red-free α-MEM (PFME) supplemented with 5% of charcoal extracted fetal bovine serum (CHX-FBS) in 6-well culture plates (Costar). Cells were treated with 1 nM 17β-estradiol alone. Control cells were treated with vehicle alone (0.01% DMSO). Cell numbers were counted by hemacytometer every two days. Medium was changed at day 4. Each time point was performed in triplicate. Specifically, the medium contained estradiol (E2 at 10^−9 M), insulin (10 microgramsg/ml) and epidermal growth factor (EGF at 25 ng/ml).

[2] = system: ADRP overexpressing cells (MCF7-C4); assay: proliferation assay, ADRP overexpressing MCF-7 cells; format: cell-based, human; conditions: estradiol 10^−9 M, insulin 10 microgramsg/ml, EGF 25 ng/ml in medium
Method: The vector used to over-express ADRP in MCF-7 cells is the ADRP-pcDNA3 vector described in Gao and Serrero, 1999. The G418 resistance gene was used as selectable marker. MCF-7 cells were transfected with the ADRP-pcDNA3 plasmid, using the lipofectamine method. Specifically, MCF-7 cells (WT) were plated onto 60-mm dish at the concentration of 2×10^5 cell per plate in 5% fetal bovine serum (FBS) in DMEM/F12 (1:1 mixture of Dulbecco's modified Eagle's medium and Ham' nutrient F12 medium) overnight before transfection. Cells were washed once with serum-free DMEM/F12 (without antibiotic). The lipofectamine method was used for the transfection. Specifically, 2 μg mouse ADRP pcDNA3 construct was used. Transfection was carried on according to manufacturer's recommendations, with 15 μl of lipofectamine and 5 hours of incubation. After transfection, the medium was replaced with 5% FBS DMEM/F12 and the cells were incubated overnight. G418 at the concentration of 800 μg/ml was added the day after for selection. Cells were selected with this medium for 3 weeks. Six clones were isolated and subjected to RT-PCR to determine the existence of the transfection construct. For proliferation assay, the cells were seeded at a density of 5×10^4 cells in phenol red-free α-MEM (PFME) supplemented with 5% of charcoal extracted fetal bovine serum (CHX-FBS) in 6-well culture plates (Costar). Cells were treated with 1 nM 17β-estradiol alone. Control cells were treated with vehicle alone (0.01% DMSO). Cell numbers were counted by hemacytometer every two days. Medium was changed at day 4. Each time point was performed in triplicate. Specifically, the medium contained estradiol (E2 at 10^−9 M), insulin (10 microgramsg/ml) and epidermal growth factor (EGF at 25 ng/ml).

[3] = system: ADRP expression in adipocytes; conditions: cited from earlier work

Row | Molecule | increase of ADRP level over the endogenous level [1] | ADRP expression ([1]; MCF-7 cells, FIG. 7) | proliferation of EV MCF-7 cells (control) (EV MCF-7 cells) | proliferation of ADRP overexpressing cells [2] | ADRP expression in adipocytes [3]
1 | CC1(COc2ccc(CC3SC(=O)NC3=O)cc2)CCCCC1 (centres unmarked) [ciglitazone] | over 10 fold |  |  |  | 
2 | C[C@]12CC[C@@H]3c4ccc(O)cc4CC[C@H]3[C@@H]1CC[C@@H]2O [estradiol, 17β-estradiol, reference compound] | 2-3 fold | stimulates ADRP expression | stimulated the proliferation | no effect | 
3 | CC(C)Cc1ccc(C(C)C(=O)O)cc1 (centres unmarked) [ibuprofen] |  |  |  |  | stimulated
4 | COc1ccc2c(c1)c(CC(=O)O)c(C)n2C(=O)c1ccc(Cl)cc1 [indomethacin] |  |  |  |  | stimulated
5 | epidermal growth factor: growth factor known to stimulate the proliferation of mammary epithelial cells |  |  | stimulated the proliferation | no effect | 
6 | insulin: hormone known to stimulate the proliferation of mammary epithelial cells |  |  | stimulated the proliferation | no effect | 
